Measurements as given in patent publication US6316421A, “Pentaerythritol lipid derivatives and nuleic-acid complexes” (The Regents of the University of California, priority 2000, dated 2001).

Legend:
NIH 3T3 cells [1] = assay: Luciferase transfection (pGL3-control plasmid), NIH 3T3 cells; assay type: cell-based; conditions: for facilitating the intracellular delivery of plasmid DNA: Example 2 conclusion, luciferase plasmid
Method: FIG. 1 is a bar graph showing the transfection activity of DMTM(Gly):DOPE liposomes as a function of the mole percent DOPE. DNA transfections were performed using NIH 3T3 cells. Lipoplexes were formulated at a 2:1 molar charge ratio (lipid charge to DNA phosphate charge). The values shown are the mean (n=4) and standard deviation of total luciferase light units (RLU) obtained from cells lysed after administration of […] DNA.
(§1) FIG. 2 is a bar graph showing luciferase transfection results as the mean (n=4) and standard deviation of total luciferase light units (RLU, left vertical axis) obtained from NIH 3T3 cells lysed after administration of […] of DNA. Relative cytotoxicity, depicted by the solid line, is plotted according to the right vertical axis, calculated as described in Example 3. With the exception of DOTAP, 1:1 cationic lipid:DOPE liposomes at a 2:1 molar charge ratio (lipid charge to DNA phosphate charge) were used for lipoplex formation. DOTAP was used without a co-lipid.
(§2) a.) Liposome Formulation.
(§3) The cationic lipid […] and DOPE […] were added as chloroform solutions to a 1.9 mL sample vial. The chloroform was evaporated using a stream of dry argon at room temperature. The resulting thin lipid films were placed under vacuum for 2-3 h to ensure that all traces of solvent were removed. Sterile water (1.0 mL) was then added to hydrate the lipid thin films, and the resultant suspension was vigorously mixed (vortex) at room temperature with occasional warming in a 60° C. water bath. The resultant 1.0 mM lipid suspension was used within 2 h of hydration.
(§4) NIH 3T3 cells were obtained from ATCC (CRL 1658) and grown in Dulbecco's Modified Eagle's Medium (DMEM; GIBCO) with 10% fetal calf serum (GIBCO) in a humidified 10% CO2 incubator at 37° C. Human bronchial epithelial cells (16HBE14o-) were cultured in Eagle's modified essential medium (MEM; GIBCO) supplemented with 10% fetal bovine serum (GIBCO), 1% glutamine (GIBCO), 1% penicillin and streptomycin (GIBCO), and grown in a 5% humidified CO2 incubator at 37° C. Both cell lines were subcultured into sterile, untreated flasks.
The NIH 3T3 cells were plated at 50,000 cells per well on a standard 24 well plate (Corning, Corning, N.Y.) 24 h prior to transfection. Cells were approximately 80% confluent at the time of transfection. The HBE cells were plated at 50,000 cells/well on a 24 well tissue culture plate coated with fibronectin, vitrogen (collagen), and bovine serum albumin as previously described (Gruenert, D. C., Basbaum C. B., and Widdicombe J. H. (1990) In Vitro Cell Dev Biol., 26, 411-418.) and were transfected as subconfluent monolayers 24 h prior to transfection. The growth media was removed via aspiration and each well was washed once with 0.5 mL buffered saline and overlaid with only MEM.
Cationic lipid-DNA complexes were prepared 15-40 mins prior to transfection. The pGL3-control vector encoding for firefly luciferase (Promega, Madison, Wis.) was. slowly added to a diluted (DMEM or MEM) quantity of the cationic lipid:DOPE suspension in a polystyrene tube. (Falcon #2058), and the lipid-DNA complex was diluted to a final volume of […]. Typically (e.g. using DOTAP), […] of the lipid suspension was used to complex […] of the plasmid DNA, yielding a 2:1 cationic lipid:DNA phosphate molar ratio. Immediately on DNA addition, the suspension was vortexed and allowed to incubate for 15 min at room temperature. A […] aliquot of the resultant lipid-DNA suspension was added to each well […]. The treated cells were then incubated for 4 h at 37° C. Control wells were treated with […] of medium without supplement. At this time, […] of the appropriate growth media including 10% FCS was added to all wells and the cells cultured for 48 h prior to lysis and analysis.
(§5) Relative luciferase activity was determined by using the Enhanced Luciferase Assay Kit and a Moonlight 2010 luminometer (Analytical Luminescence Laboratories, Sparks, Md.). […]

16HBE14o- cells = assay: Luciferase transfection (pGL3-control plasmid), 16HBE14o- cells; assay type: cell-based, Human; conditions: FIG. 3
Method: as §1, with “FIG. 3” for “FIG. 2”, “from 16HBE14o-” for “from NIH 3T3”
as §2, §3
as §4, with “Both cell lines were subcultured into sterile, untreated flasks.” left out
Cationic lipid-DNA complexes were prepared 15-40 mins prior to transfection. The pGL3-control vector encoding for firefly luciferase (Promega, Madison, Wis.) was. slowly added to a diluted (DMEM or MEM) quantity of the cationic lipid:DOPE suspension in a polystyrene tube. […]
as §5

NIH 3T3 cells [2] = assay: Relative cytotoxicity by MTS assay (CellTiter 96) of lipoplex-treated NIH 3T3 cells; assay type: cell-based; conditions: 1:1 lipid:DOPE, 2:1 charge ratio, FIG. 2
Method: as §1
(§6) Cell viability was determined by evaluating the […] dehydrogenase activity of post-transfected cells prior to lysis using the CellTiter 96 Aqueous Non-Radioactive Cell Proliferation Assay (Promega). The tetrazolium salt solution (Owen's Reagent; […]) was added to each well and the 24 well plate was then gently agitated to ensure complete mixing. After incubation for an additional 3-4 h, each well was assayed for formazan production by removing an aliquot of the medium and diluting with 9 parts phosphate buffered saline (PBS) solution. The dilution was conducted in a 1.5 mL methylacrylate UV/VIS disposable cell, and the relative amount of formazan was determined by taking absorbance reading at 490 nm using PBS as the reference. The mean (n=4) of the absorbance values was calculated and compared to the mean absorbance value for non-transfected cells. The final results were expressed in terms of relative cytotoxicity. Relative cytotoxicity was calculated by subtracting from one the ratio of mean absorbance value for transfected cells over mean absorbance value for untreated cells. A relative cytotoxicity value of zero implies no difference from untreated cells, no measurable cytotoxicity. The maximum value of one implies total cell death for treated cells, no measurable formazan production indicating significant toxicity. Negative values may reflect enhanced formazan production as a consequence of cell growth relative to untreated cells.
(§7) To test whether (DMTM(Gly)) and (DOTM(GLY)) ameliorate lipid-induced cytotoxicity, a cell viability assay was performed. The relative cytotoxicity for these lipids and the popular transfection lipids DOTAP and DC-Chol was determined by measuring the […] dehydrogenase activity for lipoplex-treated cells. The comparative assay was performed using NIH 3T3 and 16HBE14o- cells, and the results are plotted in FIGS. 2 and 3, respectively. A requisite for evaluation of cytotoxicity is the concurrent determination of relative transfection activity. Thus, the cationic lipids were evaluated for relative cytotoxicity immediately prior to determination of luciferase activity. […]

[3] = test system: NIH 3T3 and 16HBE14o- cells; assay: GFP reporter gene transfection (pEGFP-C1), fluorescence microscopy; assay type: cell-based; conditions: 48 h post-transfection
Method: (§8) Fluorescence experiments were conducted by transfecting the pEGFP-C1 C-Terminal protein fusion vector (Clontech, Palo Alto, Calif.) into NIH 3T3 and 16HBE14o- cells. The transfection protocol was identical to that of luciferase expression experiments in Example 1. Cells were grown for 48 h post-transfection, fixed with 3.7% formaldehyde, and viewed on a Zeiss ICM 405 inverted microscope with high resolution long-working distance objectives. Cells were photographed on the fluorescein channel and with phase contrast optics with a 40× water objective, using T-Max 400 (Kodak, Rochester, N.Y.) film.
(§9) To probe relationships between cellular uptake, expression, and cytotoxicity, a transfection study was conducted using the GFP reporter gene. Fluorescent microscopy of cells treated with GFP-encoded plasmid is a sensitive tool for determining the occurrence of transgene expression. […] Thus, the onset of cytotoxicity precedes gene expression.

[4] = test system: NIH 3T3 and 16HBE14o- cells; assay: Phase contrast microscopy of cells transfected with GFP lipoplexes; assay type: cell-based; conditions: for cell morphology by phase contrast: 48 h post-transfection, cell line not stated
Method: as §8, §9

[5] = Relative cytotoxicity by MTS assay (CellTiter 96) of lipoplex-treated NIH 3T3 cells; assay type: cell-based; conditions: mouse, nih 3t3 cells, 1:1 lipid:DOPE, 2:1 charge ratio, FIG. 2, read-out: treated cells impaired
Method: as §1, §6, §7

| Compound | facilitating the intracellular delivery of plasmid DNA (NIH 3T3 cells [1]) | transfection activity compared with DOTAP and DC-Chol (NIH 3T3 cells [1]; NIH 3T3, 1:1 lipid:DOPE, FIG. 2) | transfection activity on co-formulation with DOPE (DOPE titration) (NIH 3T3 cells [1]; NIH 3T3, equimolar lipid and DOPE, 2:1 molar charge ratio, FIG. 1) | effect of larger percentage DOPE on transfection activity (NIH 3T3 cells [1]; NIH 3T3, larger percentage DOPE than equimolar, FIG. 1) | transfection activity compared with DOTAP and DC-Chol (16HBE14o- cells; 1:1 lipid:DOPE) | cytotoxic response (MTS relative cytotoxicity) (NIH 3T3 cells [2]) | GFP gene transfer (presence of fluorescent cells) [3] | cell morphology by phase contrast [4] | vacuolization compared with DOTM(Gly), DOTAP, or DMTM(Gly) ([4]; phase contrast) | cytotoxicity [5] [%] | lipid:DOPE optimization results compared with DMTM(Gly) (NIH 3T3 cells [1]; DOPE titration, compared with DMTM(Gly):DOPE) | expression in comparison to DOTAP and DC-Cholesterol (NIH 3T3 cells [1]; NIH 3T3, 1:1 lipid:DOPE (DOTAP without co-lipid), FIG. 2) | transfection activity compared with dimyristoyl analog (NIH 3T3 cells [1]; NIH 3T3, 1:1 lipid:DOPE, 2:1 charge ratio, FIG. 2) | expression in comparison to DOTAP and DC-Cholesterol (16HBE14o- cells; 1:1 lipid:DOPE (DOTAP without co-lipid)) | transfection activity compared with dimyristoyl analog (16HBE14o- cells; 1:1 lipid:DOPE, 2:1 charge ratio) |
| --- | --- | --- | --- | --- | --- | --- | --- | --- | --- | --- | --- | --- | --- | --- | --- |
| CCCCCCCCCCCCCC(=O)OCC(COC(=O)CCCCCCCCCCCCC)(COC(=O)C[N+](C)(C)C)COC(=O)C[N+](C)(C)C [DMTM(Gly), dimyristoyl bis(N,N,N-trimethylglycyl) tetraester] | capable of facilitating the intracellular delivery of plasmid DNA | transfection activities similar to DOTAP and DC-Chol | near optimal transfection activity | only negligible improvement | transfection activities similar to DOTAP and DC-Chol | did not induce a cytotoxic response | – | – | – | – | – | – | – | – | – |
| CC(C)CCC[C@@H](C)[C@H]1CC[C@H]2[C@@H]3CC=C4C[C@@H](OC(=O)NCCN(C)C)CC[C@]4(C)[C@H]3CC[C@]12C [DC-Chol, 3,β-(N-(N',N'-dimethylaminoethane)-carbamoyl)cholesterol, reference compound] | – | – | – | – | – | significantly more cytotoxic | active in facilitating gene transfer | dense regions of large vacuoles | significantly greater vacuolization | ~60 | – | – | – | – | – |
| CCCCCCCC/C=C\CCCCCCCC(=O)OCC(COC(=O)CCCCCCC/C=C\CCCCCCCC)(COC(=O)C[N+](C)(C)C)COC(=O)C[N+](C)(C)C [DOTM(Gly), dioleoyl bis (N,N,N-trimethylglycyl) tetraester] | capable of facilitating the intracellular delivery of plasmid DNA | – | – | – | – | did not induce a cytotoxic response | active in facilitating gene transfer | normal cellular morphology | – | – | similar | reaching an order of magnitude greater expression | greater transfection activity than the dimyristoyl analog | reaching an order of magnitude greater expression | greater transfection activity than the dimyristoyl analog |
